Assays:
Assay type in all cases: in vivo, rat
freely moving rats = test: Induction and maintenance of PCP-induced hypofunction: LCGU by 14C-2-deoxyglucose autoradiography
Experimental: An initial treatment period of intraperitoneal (i.p.) injections once daily for 5 days was carried out, followed by a maintenance schedule of i.p. injections three times weekly (every 60 hours) for a further 21 days.
Intermittent exposure to PCP during the maintenance phase of the model was favoured due to the long half life of the drug within brain tissue (Misra, A. L. et al). […] As a comparison to the present model, the inventors also investigated the effect of previously published subchronic treatment with PCP (Jentsch, J. D. et al) using quantitative C-2-deoxyglucose autoradiography (Sokoloff, L.)
Local cerebral glucose utilisation (LCGU) was measured using an adaptation of the original method for freely moving rats (Crane, A. M. et al) 72 hours after the initial induction phase (day 8) and 72 hours after the induction phase followed by the maintenance phase (day 29). LCGU was measured 72 hours after the last exposure to PCP so the effects of PCP on LCGU would be independent of the acute effects of the drug. […] Thus, using a dose of 2.59 mgkg^−1 the inventors had established a novel treatment paradigm which mimics the findings of human imaging studies in schizophrenic patients.

5-HT2A receptors = test: 5-HT2A receptor binding (3H-ketanserin autoradiography) in prefrontal cortex after chronic PCP; settings: chronic PCP treatment
Text: In order to further validate this chronic PCP model, the effects of this treatment paradigm on 5-HT2A receptors within the prefrontal cortex was investigated. Chronic PCP treatment produced a significant decrease in 5-HT2A receptors in layer II & III (controls 158±6, PCP 139±4 fmolmg^−1) and layers V & VI (controls 82±4, PCP 69±3 fmolmg^−1). This is entirely consistent with post mortem studies of 5-HT2A receptor binding from schizophrenic patents (Laurelle, M. et al).
5-HT2A receptor binding: Sections from the level of the prefrontal cortex were preincubated for two consecutive washes at room temperature in 50mM Tris HCl buffer pH 7.4 to remove endogenous ligand. Total binding was defined using 0.71 nM (Wolkin, A. et al) ^3H-ketanserin in the presence of 1μM prazozin and 1μM tetrabenazine (to block non 5-HT2A binding). Non-specific binding was defined using 50nM spiperone. Sections were incubated with the appropriate ligand solution for 1 hour at room temperature then washed twice for 10 minutes in ice cold buffer before being rinsed in ice cold water and rapidly air dried. The sections were then exposed to film (Biomax MR, Kodak) with previously calibrated (Wolkin, A. et al) ^3H-standards.
Autoradiograms were analysed using MCID densitometry system. Results were statistically analysed using a one-way ANOVA followed by a student Newman-Keuls post hoc test.

parvalbumin mRNA = test: Parvalbumin mRNA in situ hybridisation in chronic PCP model; settings: chronic PCP treatment, alone or with clozapine or haloperidol
Experimental: In order to validate further this chronic PCP model the effect of this treatment paradigm on parvalbumin mRNA expression was investigated.
In situ hybridisation: a 45mer oligonucleotide probe was designed against bases 223-267 of the rat parvalbumin gene (GenBank accession number A819345). In situ hybridisation was carried out according to the method of Wisden and Morris (1994).

`c1ccc(C2(N3CCCCC3)CCCCC2)cc1` [PCP, phencyclidine] was tested, and the “maintenance of metabolic hypofunction by second phase of the model” value (freely moving rats; 0.86 mgkg^−1 PCP) was “not, however, maintained”, the “LCGU, Au layer I” value (freely moving rats; 0.86 mgkg^−1 PCP i.p., day 8) was 127 ± 2 μmol/100 g/min and the “LCGU, Au layers II, III&IV” value (freely moving rats; 0.86 mgkg^−1 PCP i.p., day 8) was 152 ± 3 μmol/100 g/min. For the same molecule, the “LCGU, Au layers V & VI” value (freely moving rats; 0.86 mgkg^−1 PCP i.p., day 8) was 114 ± 4 μmol/100 g/min, the “LCGU, AuD layer I” value (freely moving rats; 0.86 mgkg^−1 PCP i.p., day 8) was 126 ± 3 μmol/100 g/min and the “LCGU, AuD layers II, III&IV” value (freely moving rats; 0.86 mgkg^−1 PCP i.p., day 8) was 151 ± 4 μmol/100 g/min. The “LCGU, AuD layers V & VI” value (freely moving rats; 0.86 mgkg^−1 PCP i.p., day 8) was 106 ± 2 μmol/100 g/min, the “LCGU, DLL” value (freely moving rats; 0.86 mgkg^−1 PCP i.p., day 8) was 91 ± 4 μmol/100 g/min and the “LCGU, MD” value (freely moving rats; 0.86 mgkg^−1 PCP i.p., day 8) was 112 ± 4 μmol/100 g/min. For the same molecule, the “LCGU, PrL layer I” value (freely moving rats; 0.86 mgkg^−1 PCP i.p., day 8) was 132 ± 6 μmol/100 g/min, the “LCGU, PrL layers II & III” value (freely moving rats; 0.86 mgkg^−1 PCP i.p., day 8) was 150 ± 7 μmol/100 g/min and the “LCGU, PrL layers V & VI” value (freely moving rats; 0.86 mgkg^−1 PCP i.p., day 8) was 115 ± 3 μmol/100 g/min. For the same molecule, the “LCGU, Rt” value (freely moving rats; 0.86 mgkg^−1 PCP i.p., day 8) was 106 ± 2 μmol/100 g/min, the “LCGU, VLL” value (freely moving rats; 0.86 mgkg^−1 PCP i.p., day 8) was 98 ± 5 μmol/100 g/min and the “LCGU, cochlear nucleus” value (freely moving rats; 0.86 mgkg^−1 PCP i.p., day 8) was 107 ± 3 μmol/100 g/min. The “LCGU, mO layer” value (freely moving rats; 0.86 mgkg^−1 PCP i.p., day 8) was 110 ± 2 μmol/100 g/min, the “LCGU, mO layers II & III” value (freely moving rats; 0.86 mgkg^−1 PCP i.p., day 8) was 127 ± 2 μmol/100 g/min and the “LCGU, mO layers V & VI” value (freely moving rats; 0.86 mgkg^−1 PCP i.p., day 8) was 129 ± 5 μmol/100 g/min. The “LCGU, Au layer I” value (freely moving rats; 0.86 mgkg^−1 PCP i.p., day 29) was 167 ± 14 μmol/100 g/min, the “LCGU, Au layers II, III&IV” value (freely moving rats; 0.86 mgkg^−1 PCP i.p., day 29) was 189 ± 12 μmol/100 g/min and the “LCGU, Au layers V & VI” value (freely moving rats; 0.86 mgkg^−1 PCP i.p., day 29) was 137 ± 10 μmol/100 g/min. For the same molecule, the “LCGU, AuD layer I” value (freely moving rats; 0.86 mgkg^−1 PCP i.p., day 29) was 159 ± 11 μmol/100 g/min, the “LCGU, AuD layers II, III&IV” value (freely moving rats; 0.86 mgkg^−1 PCP i.p., day 29) was 178 ± 10 μmol/100 g/min and the “LCGU, AuD layers V & VI” value (freely moving rats; 0.86 mgkg^−1 PCP i.p., day 29) was 128 ± 9 μmol/100 g/min. The “LCGU, DLL” value (freely moving rats; 0.86 mgkg^−1 PCP i.p., day 29) was 116 ± 8 μmol/100 g/min, the “LCGU, MD” value (freely moving rats; 0.86 mgkg^−1 PCP i.p., day 29) was 122 ± 5 μmol/100 g/min and the “LCGU, PrL layer I” value (freely moving rats; 0.86 mgkg^−1 PCP i.p., day 29) was 133 ± 2 μmol/100 g/min. For the same molecule, the “LCGU, PrL layers II & III” value (freely moving rats; 0.86 mgkg^−1 PCP i.p., day 29) was 149 ± 2 μmol/100 g/min, the “LCGU, PrL layers V & VI” value (freely moving rats; 0.86 mgkg^−1 PCP i.p., day 29) was 112 ± 3 μmol/100 g/min and the “LCGU, Rt” value (freely moving rats; 0.86 mgkg^−1 PCP i.p., day 29) was 108 ± 4 μmol/100 g/min. For the same molecule, the “LCGU, VLL” value (freely moving rats; 0.86 mgkg^−1 PCP i.p., day 29) was 118 ± 13 μmol/100 g/min, the “LCGU, cochlear nucleus” value (freely moving rats; 0.86 mgkg^−1 PCP i.p., day 29) was 117 ± 2 μmol/100 g/min and the “LCGU, mO layer” value (freely moving rats; 0.86 mgkg^−1 PCP i.p., day 29) was 122 ± 3 μmol/100 g/min. The “LCGU, mO layers II & III” value (freely moving rats; 0.86 mgkg^−1 PCP i.p., day 29) was 135 ± 4 μmol/100 g/min, the “LCGU, mO layers V & VI” value (freely moving rats; 0.86 mgkg^−1 PCP i.p., day 29) was 136 ± 3 μmol/100 g/min and the “LCGU, Au layer I” value (freely moving rats; 2.58 mgkg^−1 PCP i.p., day 8) was 135 ± 3 μmol/100 g/min. For the same molecule, the “LCGU, Au layers II, III&IV” value (freely moving rats; 2.58 mgkg^−1 PCP i.p., day 8) was 166 ± 5 μmol/100 g/min, the “LCGU, Au layers V & VI” value (freely moving rats; 2.58 mgkg^−1 PCP i.p., day 8) was 120 ± 4 μmol/100 g/min and the “LCGU, AuD layer I” value (freely moving rats; 2.58 mgkg^−1 PCP i.p., day 8) was 135 ± 3 μmol/100 g/min. The “LCGU, AuD layers II, III&IV” value (freely moving rats; 2.58 mgkg^−1 PCP i.p., day 8) was 151 ± 4 μmol/100 g/min, the “LCGU, AuD layers V & VI” value (freely moving rats; 2.58 mgkg^−1 PCP i.p., day 8) was 104 ± 2 μmol/100 g/min and the “LCGU, DLL” value (freely moving rats; 2.58 mgkg^−1 PCP i.p., day 8) was 83 ± 4 μmol/100 g/min. For the same molecule, the “LCGU, MD” value (freely moving rats; 2.58 mgkg^−1 PCP i.p., day 8) was 115 ± 4 μmol/100 g/min, the “LCGU, PrL layer I” value (freely moving rats; 2.58 mgkg^−1 PCP i.p., day 8) was 104 ± 2 μmol/100 g/min and the “LCGU, PrL layers II & III” value (freely moving rats; 2.58 mgkg^−1 PCP i.p., day 8) was 133 ± 2 μmol/100 g/min. The “LCGU, PrL layers V & VI” value (freely moving rats; 2.58 mgkg^−1 PCP i.p., day 8) was 96 ± 3 μmol/100 g/min, the “LCGU, Rt” value (freely moving rats; 2.58 mgkg^−1 PCP i.p., day 8) was 86 ± 2 μmol/100 g/min and the “LCGU, VLL” value (freely moving rats; 2.58 mgkg^−1 PCP i.p., day 8) was 93 ± 3 μmol/100 g/min. The “LCGU, cochlear nucleus” value (freely moving rats; 2.58 mgkg^−1 PCP i.p., day 8) was 98 ± 3 μmol/100 g/min, the “LCGU, mO layer” value (freely moving rats; 2.58 mgkg^−1 PCP i.p., day 8) was 105 ± 4 μmol/100 g/min and the “LCGU, mO layers II & III” value (freely moving rats; 2.58 mgkg^−1 PCP i.p., day 8) was 127 ± 5 μmol/100 g/min. For the same molecule, the “LCGU, mO layers V & VI” value (freely moving rats; 2.58 mgkg^−1 PCP i.p., day 8) was 115 ± 1 μmol/100 g/min, the “LCGU, Au layer I” value (freely moving rats; 2.58 mgkg^−1 PCP i.p., day 29) was 137 ± 5 μmol/100 g/min and the “LCGU, Au layers II, III&IV” value (freely moving rats; 2.58 mgkg^−1 PCP i.p., day 29) was 162 ± 6 μmol/100 g/min. For the same molecule, the “LCGU, Au layers V & VI” value (freely moving rats; 2.58 mgkg^−1 PCP i.p., day 29) was 115 ± 3 μmol/100 g/min, the “LCGU, AuD layer I” value (freely moving rats; 2.58 mgkg^−1 PCP i.p., day 29) was 130 ± 7 μmol/100 g/min and the “LCGU, AuD layers II, III&IV” value (freely moving rats; 2.58 mgkg^−1 PCP i.p., day 29) was 146 ± 7 μmol/100 g/min. The “LCGU, AuD layers V & VI” value (freely moving rats; 2.58 mgkg^−1 PCP i.p., day 29) was 101 ± 4 μmol/100 g/min, the “LCGU, DLL” value (freely moving rats; 2.58 mgkg^−1 PCP i.p., day 29) was 96 ± 5 μmol/100 g/min and the “LCGU, MD” value (freely moving rats; 2.58 mgkg^−1 PCP i.p., day 29) was 116 ± 3 μmol/100 g/min. The “LCGU, PrL layer I” value (freely moving rats; 2.58 mgkg^−1 PCP i.p., day 29) was 107 ± 4 μmol/100 g/min, the “LCGU, PrL layers II & III” value (freely moving rats; 2.58 mgkg^−1 PCP i.p., day 29) was 116 ± 1 μmol/100 g/min and the “LCGU, PrL layers V & VI” value (freely moving rats; 2.58 mgkg^−1 PCP i.p., day 29) was 89 ± 2 μmol/100 g/min. For the same molecule, the “LCGU, Rt” value (freely moving rats; 2.58 mgkg^−1 PCP i.p., day 29) was 89 ± 2 μmol/100 g/min, the “LCGU, VLL” value (freely moving rats; 2.58 mgkg^−1 PCP i.p., day 29) was 99 ± 4 μmol/100 g/min and the “LCGU, cochlear nucleus” value (freely moving rats; 2.58 mgkg^−1 PCP i.p., day 29) was 94 ± 4 μmol/100 g/min. The “LCGU, mO layer” value (freely moving rats; 2.58 mgkg^−1 PCP i.p., day 29) was 108 ± 5 μmol/100 g/min, the “LCGU, mO layers II & III” value (freely moving rats; 2.58 mgkg^−1 PCP i.p., day 29) was 124 ± 5 μmol/100 g/min and the “LCGU, mO layers V & VI” value (freely moving rats; 2.58 mgkg^−1 PCP i.p., day 29) was 111 ± 3 μmol/100 g/min. For the same molecule, the “LCGU in medial orbital cortex, prelimbic cortex, auditory pathway, reticular nucleus of the thalamus” value (freely moving rats; 2.58 mgkg^−1 PCP, after both phases of the model) was “induced a metabolic hypofunction”, the “effect on LCGU within any brain area” value (freely moving rats; subchronic PCP 5 mgkg^−1 twice daily for seven days (data not shown)) was “did not produce any significant effect” and the “5-HT2A receptors, prefrontal cortex layer II & III” value (5-HT2A receptors) was 139±4 fmolmg^−1. The “5-HT2A receptors, prefrontal cortex layers V & VI” value (5-HT2A receptors) was 69±3 fmolmg^−1, the “parvalbumin mRNA, prelimbic region of the prefrontal cortex” value (parvalbumin mRNA) was 0.0536±0.0023 relative optical density (ROD) and the “parvalbumin mRNA, ventral reticular nucleus of the thalamus” value (parvalbumin mRNA) was 0.5032±0.0194 ROD.
